Source: patent US20220281835A1, “PHENOL DERIVATIVES FOR USE AS ANTIMICROBIAL, ANTIBACTERIAL, BACTERICIDE” (SPECIAL PRODUCT'S LINE S.P.A., priority 2019, published 2022)
≈ marks a conversion by molar mass, not a printed value.

Tests used:
Experiment in all cases: MIC/MBC broth-dilution (micromethod), CLSI
Assay type in all cases: cell-based
[1] = system: S. Aureus strain 1 (collection) mec a+; conditions: Staphylococcus aureus; for MBC: kills 99,9% of initial population
Text: (§1) Determination of Minimal Inhibitory Concentration (MIC), Minimal Bactericidal Concentration (MBC), bactericidal curves and killing rate on Gram positive and Gram negative bacteria strains, for the evaluation of the bactericidal activity of compounds of example 1 (n. 1 to 14).
(§2) In details, phenotypic methods based on in vitro MIC and MBC determination have been performed on previously isolated bacterial strains, identified and characterized at the level of their antibiotic susceptibility profile. According to MIC and MBC data, the Killing Rate was calculated as the ratio between MBC and MIC on which basis it is possible to define the compounds tested as bactericides (killing rate=1-4), or bacteriostatic (killing rate >4).
(§3) Preparation of the solution containing molecules: for each molecule to be tested, solutions were made as DMSO Stock, with a concentration of 2.560 mg/ml, used to test 12 dilutions with the following scalar drug concentrations: 512-256-128-64-32-16-8-4-2-1-0.5-0.25 μg/ml. The scalar dilutions were prepared directly on plates by using Mueller Hinton Broth (MHB) as a solvent.
Bacterial suspension preparation: cryostrains preserved at −80° C. were recovered by incubation in growth medium (Brain Heart Infusion Broth, BHI) for 24-48 hours at 37° C. followed by passages in agar growth medium (Columbia Blood Agar). Colonies with less than 30 hours are suspended in MHB with the purpose to prepare a bacterial suspension with a turbidity of 0.5 MF, containing approximately 1.5×10^8 cfu/ml. This injection is additionally diluted in MHB until reaching a final concentration of 5×10^5 cfu/ml (range 3-7×10^5 cfu/ml). Identical volumes of this bacterial suspension are added on a plate, for each well containing drug scalar dilutions, to obtain a final concentration between 512 a 0.25 μg/ml. The set up of bacterial suspensions as well as the passage on slate has always been performed within 30 minutes, in order not to alter the concentration of the bacterial suspension. Simultaneously, check in broth-microdilution only with solvent (in order to exclude that the effect of growth inhibition might be due to the drug solution solvent), positive growth control in absence of DMSO and drug, and negative purity control only with injection broth are performed. As a consequence the slate is incubated at 37° C. for 24 and 48 hours in aerobes. […] The same observations are valid to evaluate 48 hours MIC. After the incubation, an equal volume of bacterial suspension from each well is plated on agar growth medium and incubated for 24-48 hours at a temperature of 37° C. in aerobes, in order to define the MBC after the incubation.
Bacterial strains: the bactericidal and/or bacteriostatic power of the synthesized compounds can be determined by using standard reference strains such as: • 1. S. Aureus ATCC 25923 res kan, tob, res streptogramine (sga-sgb, efflux), res mupirocina (at low level), res trimetoprim; • 2. S. Aureus strain 1 (collection) mec a+, res kan tob gen, res quinolones, lincosamides, res streptogramine (sga-sgb), mlsb+sa constituent, mlsb constituent, res mupirocine (low level), res trimetoprim; • 3. S. Aureus strain 2 (collection) acquired penicillinase, res kan tob, res streptogramine (sga-sgb, efflux), res mupirocine (low level), res trimetoprim; • 4. Enterococcus faecalis ATCC 51299 (str+gen res at high level, mlsb res, simil van b res); • 5. Enterococcus faecalis strain 1 (collection) (str+kan res at high level str res at high level tetracycline res); • 6. Enterococcus faecalis strain 2 (collection) (kan res at high level); • 7. E. coli of Collection: RESISTANT to ampicilline, amox+ac clav, ampicillinr+sulbactam, cefalexine, cefuroxime, cefuroxime axetil, cefixime, cefpodoxime, cefotaxime, ceftazidime, ceftriaxone, netilmicine, tobramicine, ciprofloxcine, trim/sulfametox, esbl pos, SENSITIVE to meropenem and gentamicine, INTERMEDIATE to amikacine; • 8. 8.

[2] = system: Enterococcus faecalis ATCC 51299; conditions: ATCC51299, E. FAECALIS ATCC 51299, values without asterisk
Text: as §1
as §2, with “Sensitivity tests have been performed in broth-dilution (micromethod) with the purpose to test the possible bacteriostatic and/or bactericidal power in different compounds, in accordance with CLSI guidelines (Clinical and Laboratory Standards Institute). In” for “In”
as §3
(§4) Bacterial suspension preparation: cryostrains preserved at −80° C. were recovered by incubation in growth medium (Brain Heart Infusion Broth, BHI) for 24-48 hours at 37° C. followed by passages in agar growth medium (Columbia Blood Agar). Colonies with less than 30 hours are suspended in MHB with the purpose to prepare a bacterial suspension with a turbidity of 0.5 MF, containing approximately 1.5×10^8 cfu/ml. This injection is additionally diluted in MHB until reaching a final concentration of 5×10^5 cfu/ml (range 3-7×10^5 cfu/ml). Identical volumes of this bacterial suspension are added on a plate, for each well containing drug scalar dilutions, to obtain a final concentration between 512 a 0.25 μg/ml. The set up of bacterial suspensions as well as the passage on slate has always been performed within 30 minutes, in order not to alter the concentration of the bacterial suspension. Simultaneously, check in broth-microdilution only with solvent (in order to exclude that the effect of growth inhibition might be due to the drug solution solvent), positive growth control in absence of DMSO and drug, and negative purity control only with injection broth are performed. As a consequence the slate is incubated at 37° C. for 24 and 48 hours in aerobes. The 24 hours MIC is considered as the minimum drug concentration able to inhibit bacterial growth, which makes it possible to observe the absence of bacterial growth and the absence of turbidity. The same observations are valid to evaluate 48 hours MIC. After the incubation, an equal volume of bacterial suspension from each well is plated on agar growth medium and incubated for 24-48 hours at a temperature of 37° C. in aerobes, in order to define the MBC after the incubation. The MBC is evaluated as the minimum concentration of drug able to kill the 99,9% of the initial bacterial population.
(§5) Bacterial strains: the bactericidal and/or bacteriostatic power of the synthesized compounds can be determined by using standard reference strains such as: • 1. S. Aureus ATCC 25923 res kan, tob, res streptogramine (sga-sgb, efflux), res mupirocina (at low level), res trimetoprim; • 2. S. Aureus strain 1 (collection) mec a+, res kan tob gen, res quinolones, lincosamides, res streptogramine (sga-sgb), mlsb+sa constituent, mlsb constituent, res mupirocine (low level), res trimetoprim; • 3. S. Aureus strain 2 (collection) acquired penicillinase, res kan tob, res streptogramine (sga-sgb, efflux), res mupirocine (low level), res trimetoprim; • 4. Enterococcus faecalis ATCC 51299 (str+gen res at high level, mlsb res, simil van b res); • 5. […]

[3] = system: Enterococcus faecalis strain 1 (collection); conditions: E. FAECALIS strain 1, values without asterisk
Text: as §1
as §2, with “Sensitivity tests have been performed in broth-dilution (micromethod) with the purpose to test the possible bacteriostatic and/or bactericidal power in different compounds, in accordance with CLSI guidelines (Clinical and Laboratory Standards Institute). In” for “In”
as §3, §4, §5

[4] = system: Enterococcus faecalis strain 2 (collection); conditions: for MBC: E. FAECALIS strain 2, kills 99,9% of initial population
Text: as §1
as §2, with “Sensitivity tests have been performed in broth-dilution (micromethod) with the purpose to test the possible bacteriostatic and/or bactericidal power in different compounds, in accordance with CLSI guidelines (Clinical and Laboratory Standards Institute). In” for “In”
as §3, §4, §5

S. Aureus ATCC 25923 = conditions: Staphylococcus aureus, ATCC25923, marked *: MIC value read at 48 hours
Text: as §1
as §2, with “Sensitivity tests have been performed in broth-dilution (micromethod) with the purpose to test the possible bacteriostatic and/or bactericidal power in different compounds, in accordance with CLSI guidelines (Clinical and Laboratory Standards Institute). In” for “In”
as §3, §4, §5

[5] = system: S. Aureus strain 2 (collection); conditions: Staphylococcus aureus, marked *: MIC value read at 48 hours
Text: as §1
as §2, with “Sensitivity tests have been performed in broth-dilution (micromethod) with the purpose to test the possible bacteriostatic and/or bactericidal power in different compounds, in accordance with CLSI guidelines (Clinical and Laboratory Standards Institute). In” for “In”
as §3, §4, §5

[6] = system: P. Aeruginosa of collection; conditions: Pseudomonas aeruginosa
Text: as §1
as §2, with “Sensitivity tests have been performed in broth-dilution (micromethod) with the purpose to test the possible bacteriostatic and/or bactericidal power in different compounds, in accordance with CLSI guidelines (Clinical and Laboratory Standards Institute). In” for “In”
as §3, §4, §5

[7] = marked *: MIC value read at 48 hours
[8] = E. FAECALIS strain 2, values without asterisk
[9] = E. FAECALIS strain 2, marked *: MIC value read at 48 hours

Row | MIC ([1]; values without asterisk) [µg/mL] | MIC [1, 7] [µg/mL] | MIC [4, 9] [µg/mL] | SMILES | MBC [1] [µg/mL] | MBC [4] [µg/mL] | other results
1 | 16 (≈ 41.4 µM) | – | – | COc1ccc(-c2ccc(C#CC(=O)O)cc2)cc1C12CC3CC(CC(C3)C1)C2 [Compound 7, 4-(3-(1-adamantyl)-4-methoxyphenyl)propiolic acid] | – | – | –
2 | – | 16 to 64 (≈ 39.8 to 159 µM) | 32 to 64 (≈ 79.5 to 159 µM) | O=Cc1cc(-c2ccc(/C=C/C(=O)O)cc2)cc(C23CC4CC(CC(C4)C2)C3)c1O [Compound 21, E-3-[3′-Formyl-4′-hydroxy-5′-(adamantan-1-yl)-biphenyl-4-yl]-acrylic acid] | – | – | –
3 | 32 (≈ 69.3 µM) | – | – | CC(Oc1ccc(-c2ccc(/C=C/C(=O)O)cc2)cc1C12CC3CC(CC(C3)C1)C2)C(=O)NO (stereo not shown) [Compound 10] | – | – | –
4 | – | 64 to 128 | – | N#C/C=C/c1ccc(-c2ccc(O)c(C34CC5CC(CC(C5)C3)C4)c2)cc1 (mixture of isomers) [Compound 1] | 128 | 128 | MIC [4, 8]: 32 µg/mL
5 | – | 4 to 8 (≈ 8.98 to 18 µM) | 2 to 4 (≈ 4.49 to 8.98 µM) | CC(=O)NCc1cc(-c2ccc(/C=C/C(=O)O)cc2)cc(C23CC4CC(CC(C4)C2)C3)c1O [Compound 17, E-3-[3′-(Acetylaminomethyl)-4′-hydroxy-5′-(adamantan-1-yl)biphenyl-4-yl]-acrylic acid] | 16 (≈ 35.9 µM) | 16 (≈ 35.9 µM) | –
6 | – | 4 to 8 (≈ 7.65 to 15.3 µM) | 2 to 4 (≈ 3.83 to 7.65 µM) | O=C(O)/C=C/c1ccc(-c2cc(CNC(=O)Nc3ccccc3)c(O)c(C34CC5CC(CC(C5)C3)C4)c2)cc1 [Compound 18] | 8 (≈ 15.3 µM) | 16 (≈ 30.6 µM) | –
7 | 2 (≈ 5.01 µM) | – | 0.5 to 1 (≈ 1.25 to 2.5 µM) | N#C/C(=C\c1ccc(-c2ccc(O)c(C34CC5CC(CC(C5)C3)C4)c2)cc1)C(=O)O [Compound 4] | 4 (≈ 10 µM) | 4 (≈ 10 µM) | –
8 | – | 16 to 32 | 16 to 32 | N=C(N)NCc1cc(C=CC(=O)O)ccc1-c1ccc(O)c(C23CC4CC(CC(C4)C2)C3)c1.O=C(O)C(F)(F)F [Compound 15, 3-(3′-Adamantan-1-yl-2-guanidinomethyl-4′-hydroxy-biphenyl-4-yl)-acrylic acid trifluoroacetate] | 32 to 64 | 32 to 64 | –
9 | 128 (≈ 286 µM) | – | – | O=C(O)/C=C/c1ccc(-c2ccc(OCC(=O)NO)c(C34CC5CC(CC(C5)C3)C4)c2)cc1 [Compound 9] | – | – | –
10 | – | 64 to 128 (≈ 135 to 269 µM) | 64 to 128 (≈ 135 to 269 µM) | O=C(O)C=Cc1ccc(-c2ccc(O)c(C34CC5CC(CC(C5)C3)C4)c2)c(C=NOCC(=O)O)c1 [Compound 14, 3-[3′-Adamant-1-yl-4′-hydroxy-2-carboxymethoxyiminomethyl-biphenyl-4-yl]-acrylic acid] | – | – | –
11 | – | 8 to 16 (≈ 21.2 to 42.5 µM) | 8 to 16 (≈ 21.2 to 42.5 µM) | O=C(O)CCc1ccc(-c2ccc(O)c(C34CC5CC(CC(C5)C3)C4)c2)cc1 [Compound 19, 3-(3′-Adamantan-1-yl-4′-hydroxybiphenyl-4-yl)propionic Acid] | 16 (≈ 42.5 µM) | 32 (≈ 85 µM) | –
12 | 0.5 (≈ 1.39 µM) | – | – | OCC#Cc1ccc(-c2ccc(O)c(C34CC5CC(CC(C5)C3)C4)c2)cc1 [Compound 2, 3-(adamantan-1-yl)-4′-(3-hydroxyprop-1-yn-1-yl)-[1,1′-biphenyl]-4-ol] | 4 (≈ 11.2 µM) | 2 to 4 (≈ 5.58 to 11.2 µM) | MIC [4, 8]: 0.5 µg/mL (≈ 1.39 µM)
13 | – | 8 to 32 (≈ 12.6 to 50.2 µM) | – | CCCCC/C=C\C/C=C\CCCCCCCC(=O)Oc1ccc(-c2ccc(/C=C/C(=O)O)cc2)cc1C12CC3CC(CC(C3)C1)C2 [Compound 20, (E)-Octadeca-9,12-dienoic acid 3-adamantan-1-yl-40-(2-carboxyvinyl)-biphenyl-4-yl ester] | – | – | MIC [4, 8]: 128 µg/mL (≈ 201 µM); MIC [6]: 20 µg/mL (≈ 31.4 µM)
14 | – | 2 to 4 (≈ 4.8 to 9.6 µM) | 1 to 2 (≈ 2.4 to 4.8 µM) | O=C(O)C=Cc1ccc(-c2cc3c(c(C45CC6CC(CC(C6)C4)C5)c2)OCCO3)cc1 [Compound 16, 3-{4-[8-(Adamantan-1-yl)-2,3-dihydro-benzo[1,4]-dioxin-6-yl]-phenyl}-acrylic acid] | – | – | –

Row | SMILES | MIC ([1]; values without asterisk) [µg/mL] | MIC [1, 7] [µg/mL] | MIC [4, 9] [µg/mL] | MBC [1] [µg/mL] | MBC [4] [µg/mL] | other results
15 | O=C(O)C=Cc1ccc(-c2ccc(OCCCCO)c(C34CC5CC(CC(C5)C3)C4)c2)cc1 [Compound 11, 3-[3′-Adamantan-1-yl-4′-(hydroxy-butoxy)-biphenyl-4-yl]-acrylic acid] | – | 64 to 256 (≈ 143 to 573 µM) | – | – | – | MIC [2]: 64 µg/mL (≈ 143 µM); MIC [3]: 128 µg/mL (≈ 287 µM); MIC [4, 8]: 128 µg/mL (≈ 287 µM); MIC (S. Aureus ATCC 25923): 128 to 256 µg/mL (≈ 287 to 573 µM); MIC [5]: 128 to 256 µg/mL (≈ 287 to 573 µM)
